The results in this text go back to ChEMBL document CHEMBL4014291, “Tripodal squaramide conjugates as highly effective transmembrane anion transporters” (Bioorg Med Chem Lett, 2017).

The source made the active and inactive calls. The rule behind the calls is not given here.

Experiment [1] is described as follows: Ionophoric activity across pyranine dye encapsulated pH 7 egg yolk L-alpha-phosphatidylcholine-based large unilamellar vesicles assessed as chloride ion transport by measuring initial rate constant for induction of pH discharge at 0.5 mol% in presence of NaCl loaded external vesicles by fluorescence method (reference value: 0.81 +/- 0.22 10^-2/min).
Experiment [2] is described as follows: Ionophoric activity across pyranine dye encapsulated pH 7 egg yolk L-alpha-phosphatidylcholine-based large unilamellar vesicles assessed as chloride ion transport by measuring initial rate constant for induction of pH discharge at 1 mol% in presence of NaCl loaded external vesicles by fluorescence method (reference value: 0.81 +/- 0.22 10^-2/min).
Experiment [3] is described as follows: Ionophoric activity across pyranine dye encapsulated pH 7 egg yolk L-alpha-phosphatidylcholine-based large unilamellar vesicles assessed as bromide ion transport by measuring initial rate constant for induction of pH discharge at 0.25 mol% in presence of NaBr loaded external vesicles by fluorescence method (reference value: 2.08 +/- 0.19 10^-2/min).
Experiment [4] is described as follows: Ionophoric activity across egg yolk L-alpha-phosphatidylcholine-based large unilamellar vesicles loaded with LiCl assessed as chloride ion efflux at 3 mol% after 300 seconds in presence of NaNO3 loaded external vesicles by electrode technique.
Experiment [5] in a line: Ionophoric activity across egg yolk L-alpha-phosphatidylcholine-based large unilamellar vesicles loaded with KCl assessed as chloride ion efflux at 3 mol% after 300 seconds in presence of NaNO3 loaded external vesicles by electrode technique.
Experiment [6] is described as follows: Ionophoric activity across egg yolk L-alpha-phosphatidylcholine-based large unilamellar vesicles loaded with RbCl assessed as chloride ion efflux at 3 mol% after 300 seconds in presence of NaNO3 loaded external vesicles by electrode technique.
Experiment [7] can be described thus: Ionophoric activity across egg yolk L-alpha-phosphatidylcholine-based large unilamellar vesicles loaded with CsCl assessed as chloride ion efflux at 3 mol% after 300 seconds in presence of NaNO3 loaded external vesicles by electrode technique.
The nature of experiment [8]: Ionophoric activity across pyranine dye encapsulated pH 7 egg yolk L-alpha-phosphatidylcholine-based large unilamellar vesicles assessed as nitrate ion transport by measuring initial rate constant for induction of pH discharge at 0.25 mol% in presence of NaNO3 loaded external vesicles by fluorescence method (reference value: 2.24 +/- 0.52 10^-2/min).
Experiment [9] can be described thus: Ionophoric activity across pyranine dye encapsulated pH 7 egg yolk L-alpha-phosphatidylcholine-based large unilamellar vesicles assessed as nitrate ion transport by measuring initial rate constant for induction of pH discharge at 0.0313 mol% in presence of NaNO3 loaded external vesicles by fluorescence method (reference value: 2.24 +/- 0.52 10^-2/min).
Experiment [10] in a line: Ionophoric activity across egg yolk L-alpha-phosphatidylcholine-based large unilamellar vesicles loaded with KCl assessed as chloride ion efflux at 1 mol% after 300 seconds in presence of NaNO3 loaded external vesicles by electrode technique.
Experiment [11] can be described thus: Ionophoric activity across pyranine dye encapsulated pH 7 egg yolk L-alpha-phosphatidylcholine-based large unilamellar vesicles assessed as chloride ion transport by measuring initial rate constant for induction of pH discharge at 0.0078 mol% in presence of NaCl loaded external vesicles by fluorescence method (reference value: 0.81 +/- 0.22 10^-2/min).
Experiment [12] is described as follows: Binding affinity to tetrabutylammonium chloride anion by 1H NMR spectrophotometric method.
Experiment [13] is described as follows: Ionophoric activity across pyranine dye encapsulated pH 7 egg yolk L-alpha-phosphatidylcholine-based large unilamellar vesicles assessed as chloride ion transport by measuring initial rate constant for induction of pH discharge at 0.0625 mol% in presence of NaCl loaded external vesicles by fluorescence method (reference value: 0.81 +/- 0.22 10^-2/min).
A short description of experiment [14]: Ionophoric activity across pyranine dye encapsulated pH 7 egg yolk L-alpha-phosphatidylcholine-based large unilamellar vesicles assessed as bromide ion transport by measuring initial rate constant for induction of pH discharge at 0.0078 mol% in presence of NaBr loaded external vesicles by fluorescence method (reference value: 2.08 +/- 0.19 10^-2/min).
The nature of experiment [15]: Ionophoric activity across pyranine dye encapsulated pH 7 egg yolk L-alpha-phosphatidylcholine-based large unilamellar vesicles assessed as nitrate ion transport by measuring initial rate constant for induction of pH discharge at 0.00781 mol% in presence of NaNO3 loaded external vesicles by fluorescence method (reference value: 2.24 +/- 0.52 10^-2/min).
Experiment [16] in a line: Ionophoric activity across pyranine dye encapsulated pH 7 egg yolk L-alpha-phosphatidylcholine-based large unilamellar vesicles assessed as nitrate ion transport by measuring initial rate constant for induction of pH discharge at 0.03125 mol% in presence of NaNO3 loaded external vesicles by fluorescence method (reference value: 2.24 +/- 0.52 10^-2/min).
Experiment [17] is described as follows: Ionophoric activity across egg yolk L-alpha-phosphatidylcholine-based large unilamellar vesicles loaded with LiCl assessed as chloride ion efflux at 1 mol% after 300 seconds in presence of NaNO3 loaded external vesicles by electrode technique.
Experiment [18] can be described thus: Ionophoric activity across egg yolk L-alpha-phosphatidylcholine-based large unilamellar vesicles loaded with RbCl assessed as chloride ion efflux at 1 mol% after 300 seconds in presence of NaNO3 loaded external vesicles by electrode technique.
Experiment [19] can be described thus: Ionophoric activity across egg yolk L-alpha-phosphatidylcholine-based large unilamellar vesicles loaded with CsCl assessed as chloride ion efflux at 1 mol% after 300 seconds in presence of NaNO3 loaded external vesicles by electrode technique.

On to `O=c1c(NCCN(CCNc2c(Nc3cc(C(F)(F)F)cc(C(F)(F)F)c3)c(=O)c2=O)CCNc2c(Nc3cc(C(F)(F)F)cc(C(F)(F)F)c3)c(=O)c2=O)c(Nc2cc(C(F)(F)F)cc(C(F)(F)F)c2)c1=O`, for which the K in experiment [1] turned out to be 6.63 ×10⁻² /min; in [2], 9.42 ×10⁻² /min; in [3], 10.8 ×10⁻² /min; in experiment [8] it was 10.2 ×10⁻² /min; in experiment [9], 3.2 ×10⁻² /min. The outcome in experiment [4], in experiment [5], in experiment [6] and in [7] was inactive.
Turning to `O=c1c(NCCN(CCNc2c(Nc3ccc(C(F)(F)F)cc3)c(=O)c2=O)CCNc2c(Nc3ccc(C(F)(F)F)cc3)c(=O)c2=O)c(Nc2ccc(C(F)(F)F)cc2)c1=O`, the outcome in experiment [10], in [17], in experiment [18] and in experiment [19] was inactive. Moreover, the K was 1.27 ×10⁻² /min in experiment [11]; 2.69 ×10⁻² /min in experiment [13]; 2.59 ×10⁻² /min in experiment [14]; 2.53 ×10⁻² /min in experiment [15]; 4.91 ×10⁻² /min in experiment [16]. The compound further yielded a logKa in experiment [12] of 2.65.
